Laboratory results published in patent US20260085034A1, “N-(BENZHYDRYL)CYCLOALKYLCARBOXAMIDE DERIVATIVES AS INHIBITORS OF GLYCOGEN SYNTHASE 1 (GYS1) AND METHODS OF USE THEREOF” (Maze Therapeutics, Inc., priority 2022, published 2026).
pIC50: −log10 of the molar value.

Biological target: T1, recombinant hGYS1/GN1 protein (Homo sapiens, UniProt P13807)
T1 sequence (P13807 1-737): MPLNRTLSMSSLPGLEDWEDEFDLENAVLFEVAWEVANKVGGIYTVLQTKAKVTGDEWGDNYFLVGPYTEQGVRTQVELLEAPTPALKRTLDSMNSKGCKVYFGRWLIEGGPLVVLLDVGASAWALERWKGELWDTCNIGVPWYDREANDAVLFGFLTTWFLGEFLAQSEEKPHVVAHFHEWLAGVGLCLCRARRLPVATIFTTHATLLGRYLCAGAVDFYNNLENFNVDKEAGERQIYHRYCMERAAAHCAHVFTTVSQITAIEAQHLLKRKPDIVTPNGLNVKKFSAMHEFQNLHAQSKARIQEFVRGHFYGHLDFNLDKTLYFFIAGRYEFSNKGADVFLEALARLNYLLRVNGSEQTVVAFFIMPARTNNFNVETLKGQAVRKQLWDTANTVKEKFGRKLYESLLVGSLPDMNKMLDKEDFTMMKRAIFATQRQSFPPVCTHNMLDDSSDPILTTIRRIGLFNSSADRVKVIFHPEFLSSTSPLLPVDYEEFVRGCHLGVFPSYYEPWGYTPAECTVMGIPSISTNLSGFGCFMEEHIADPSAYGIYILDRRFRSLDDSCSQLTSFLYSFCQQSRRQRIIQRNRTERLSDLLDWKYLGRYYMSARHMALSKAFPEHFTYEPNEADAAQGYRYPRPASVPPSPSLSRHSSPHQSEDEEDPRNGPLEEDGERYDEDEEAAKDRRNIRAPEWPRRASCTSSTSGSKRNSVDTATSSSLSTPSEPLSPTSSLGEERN
T1 sequence (P46976 1-350 partner): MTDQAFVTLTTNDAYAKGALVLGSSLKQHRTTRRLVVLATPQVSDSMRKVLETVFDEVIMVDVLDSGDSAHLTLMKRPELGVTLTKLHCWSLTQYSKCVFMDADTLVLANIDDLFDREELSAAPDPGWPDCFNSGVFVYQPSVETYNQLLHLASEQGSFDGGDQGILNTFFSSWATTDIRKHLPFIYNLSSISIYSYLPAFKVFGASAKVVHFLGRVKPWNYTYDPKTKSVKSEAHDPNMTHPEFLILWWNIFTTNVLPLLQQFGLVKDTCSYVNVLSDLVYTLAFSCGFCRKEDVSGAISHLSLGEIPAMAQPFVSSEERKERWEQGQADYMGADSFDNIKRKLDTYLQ
Assay: GYS1 coupled enzyme assay (PK/LDH)
Format: biochemical
Conditions: geometric mean of at least 2 assay runs; NADH absorbance at 340 nm
Excerpt: The GYS1 coupled enzyme assay is a kinetic biochemical assay that indirectly quantifies the rate of glycogen synthesis by coupling the conversion of GYS1 substrate UDP-glucose into UDP with downstream enzymatic reactions. UDP is released from UDP-glucose as glucose monomers are linked into the growing glycogen strand by GYS1. The coupled assay then proceeds with pyruvate kinase utilizing UDP and phospho(enol)pyruvate (PEP) to form pyruvate. Lactate dehydrogenase then converts pyruvate and NADH into lactate and NAD+. Oxidation of NADH to NAD+ can be measured continuously with a plate reader by quantifying the decrease in NADH absorbance at 340 nm over time.
Compounds that inhibit the hGYS1 enzyme and, subsequently, the downstream conversion of NADH to NAD+, were tested using assay ready plates (black, clear bottom 384 well plates) in a final DMSO reaction volume of 2.5% DMSO. The Assay Buffer contained 50 mM Tris pH 7.5, 2 mM MgCl2, and 100 mM KCl. Fresh stocks of BSA at a final concentration of 0.02% and TCEP at 1 mM were added before splitting buffer into hGYS1 buffer and substrate buffer. To the hGYS1 buffer, rabbit liver glycogen was added at a final concentration of 0.2% glycogen. Glucose-6-Phosphate was added at 1 mM, recombinant hGYS1/GN1 protein was added at 50 nM to the substrate buffer, phosphoenolpyruvate (PEP) was added at 2 mM, UDP-Glucose was added at 0.8 mM, NADH) was added at 0.6 mM, and Pyruvate Kinase/Lactate Dehydrogenase was added at 20 units/mL. The reaction was initiated by mixing hGYS1 buffer and substrate buffer at a 1:1 ratio. Both buffers were plated using a liquid dispensing device with hGYS1 buffer plated first followed by the substrate buffer. Plates were spun briefly to eliminate air bubbles and are immediately read in continuous mode at an absorbance of 340 nm, for 10 time points in one-minute increments, for a total of 10 minutes. The slope from these 10 time points was normalized to the positive and negative control wells. The duplicate % inhibition values are then averaged and fit to a Hill equation for dose response according to the Levenberg-Marquardt algorithm with the Hill equation maximum set to 100 and the minimum set to 0.
The results are shown in Table 3 below, which reports the IC50 of each compound. Unless otherwise specified, IC50 values are reported as the geometric mean of at least 2 assay runs on separate days. Each run represents the average of a technical replicate, where each compound was assayed twice in the same plate. As shown in the table below, the compounds of the present invention are potent inhibitors of human GYS1.

| SMILES | pIC50 |
| --- | --- |
| NC(=O)Nc1ccccc1[C@H](NC(=O)C1CC1)c1ccc(C2CC2)cc1 (single isomer, unassigned) [compound 17] | 5.65 |
| CC(C)c1ccc([C@@H](NC(=O)C2CC2)c2ccccc2Nc2ncco2)cc1 (single isomer, unassigned) [compound 31] | 5.91 |
| CC(C)c1ccc([C@@H](NC(=O)C2CC2)c2cccc3c2NC(=O)C3)cc1 (single isomer, unassigned) [compound 32] | 5.70 |
| COc1ccccc1[C@H](NC(=O)C1CC1)c1ccc(C(C)C)cn1 (single isomer, unassigned) [compound 33] | 5.85 |
| Cc1n[nH]cc1[C@H](NC(=O)C1CC1)c1ccc(C(C)C)cc1 (single isomer, unassigned) [compound 43] | 5.61 |
| Cc1ccccc1[C@H](NC(=O)C1CC1)c1ccc(C(C)C)cn1 (single isomer, unassigned) [compound 47] | 5.74 |
| CC(=O)Nc1cccc([C@H](NC(=O)C2CC2)c2ccc(C(C)C)cc2)c1 [compound 6, (R)-N-((3-acetamidophenyl)(4-isopropylphenyl)methyl)cyclopropanecarboxamide] | 6.13 |
| Cc1ccccc1[C@H](NC(=O)[C@@H]1CCC[C@@H]1C#N)c1ccc(C(C)C)cc1 [compound 7, (1R,2S)-2-cyano-N-((R)-(4-isopropylphenyl)(o-tolyl)methyl)cyclopentane-1-carboxamide] | 5.94 |
| CC(C)c1ccc([C@@H](NC(=O)C2CC2)c2ccccc2NC2NC(=O)N(C)C2=O)cc1 (stereo partly drawn) [compound 8, N-((1R)-(4-isopropylphenyl)(2-((1-methyl-2,5-dioxoimidazolidin-4-yl)amino)phenyl)methyl)cyclopropanecarboxamide] | 6.53 |
| CC(C)c1ccc([C@@H](NC(=O)[C@H]2C[C@@H]2F)c2ccccc2NC(=O)C2CCN(C)CC2)cc1 [compound 12, N-(2-((R)-((1R,2S)-2-fluorocyclopropane-1-carboxamido)(4-isopropylphenyl)methyl)phenyl)-1-methylpiperidine-4-carboxamide] | 5.79 |
| CNC(=O)[C@H]1CCC[C@H]1C(=O)N[C@H](c1ccc(C(C)C)cc1)c1ccccc1C [compound 16, (1R,2S)-N^1-((R)-(4-isopropylphenyl)(o-tolyl)methyl)-N^2-methylcyclopentane-1,2-dicarboxamide] | 5.76 |
| COC(=O)CCNC(=O)[C@H]1CCC[C@H]1C(=O)N[C@H](c1ccc(C(C)C)cc1)c1ccccc1C [compound 20, methyl 3-((1S,2R)-2-(((R)-(4-isopropylphenyl)(o-tolyl)methyl)carbamoyl)cyclopentane-1-carboxamido)propanoate] | 5.53 |
| CC(=O)NCC(=O)N[C@H]1CCC[C@H]1C(=O)N[C@@H](c1ccccc1)c1ccc(C(C)C)cc1 [compound 21, (1R,2S)-2-(2-acetamidoacetamido)-N-((S)-(4-isopropylphenyl)(phenyl)methyl)cyclopentane-1-carboxamide] | 5.82 |
| Cc1ccccc1[C@H](NC(=O)[C@@H]1CCC[C@@H]1C(=O)NC#N)c1ccc(C(C)C)cc1 [compound 22, (1S,2R)-N^1-cyano-N^2-((R)-(4-isopropylphenyl)(o-tolyl)methyl)cyclopentane-1,2-dicarboxamide] | 5.89 |
| CC(C)c1ccc([C@@H](NC(=O)C2CC2)c2ccccc2NC(=O)C2CN(CC(F)(F)F)C2)cc1 [compound 23, (R)-N-(2-(cyclopropanecarboxamido(4-isopropylphenyl)methyl)phenyl)-1-(2,2,2-trifluoroethyl)azetidine-3-carboxamide] | 5.92 |
| COCCN1CC(C(=O)Nc2ccccc2[C@H](NC(=O)C2CC2)c2ccc(C(C)C)cc2)C1 [compound 24, (R)-N-(2-(cyclopropanecarboxamido(4-isopropylphenyl)methyl)phenyl)-1-(2-methoxyethyl)azetidine-3-carboxamide] | 5.92 |
| CC(C)c1ccc([C@@H](NC(=O)C2CC2)c2ccccc2NC(=O)C2CN(CC3CC3)C2)cc1 [compound 25, (R)-N-(2-(cyclopropanecarboxamido(4-isopropylphenyl)methyl)phenyl)-1-(cyclopropylmethyl)azetidine-3-carboxamide] | 5.94 |
| CC(=O)N[C@@H](CC(N)=O)C(=O)N[C@H]1CCC[C@H]1C(=O)N[C@@H](c1ccccc1)c1ccc(C(C)C)cc1 [compound 28, (S)-2-acetamido-N^1-((1S,2R)-2-(((S)-(4-isopropylphenyl)(phenyl)methyl)carbamoyl)cyclopentyl)succinamide] | 5.53 |
| Cc1ccccc1[C@H](NC(=O)[C@@H]1CCC[C@@H]1C(N)=O)c1ccc(C(C)C)cc1 [compound 30, (1R,2S)-N^1-((R)-(4-isopropylphenyl)(o-tolyl)methyl)cyclopentane-1,2-dicarboxamide] | 5.86 |
| CC(C)c1ccc([C@@H](NC(=O)[C@H]2CCC(F)C2)c2ccccc2)cc1 (stereo partly drawn) [compound 34, (1S)-3-fluoro-N-((S)-(4-isopropylphenyl)(phenyl)methyl)cyclopentane-1-carboxamide] | 6.11 |
| CC(C)c1ccc([C@@H](NC(=O)[C@H]2CCC(O)C2)c2ccccc2)cc1 (stereo partly drawn) [compound 35, (1S)-3-hydroxy-N-((S)-(4-isopropylphenyl)(phenyl)methyl)cyclopentane-1-carboxamide] | 5.95 |
| CC(C)c1ccc([C@@H](NC(=O)[C@@H]2CCC[C@@H]2NC(N)=O)c2ccccc2)cc1 [compound 38, (1R,2S)-N-((S)-(4-isopropylphenyl)(phenyl)methyl)-2-ureidocyclopentane-1-carboxamide] | 5.72 |
| O=C(N[C@@H](c1ccccc1)c1ccc(C2CCC2)cc1)C1CC1 [compound 40, (S)-N-((4-cyclobutylphenyl)(phenyl)methyl)cyclopropanecarboxamide] | 5.88 |
| O=C(N[C@@H](c1ccccc1)c1ccc(C2CC2)cc1)C1CC1 [compound 41, (S)-N-((4-cyclopropylphenyl)(phenyl)methyl)cyclopropanecarboxamide] | 5.69 |
| CC(=O)N1CC[C@H]1C(=O)Nc1ccccc1[C@H](NC(=O)C1CC1)c1ccc(C(C)C)cc1 [compound 42, (S)-1-acetyl-N-(2-((R)-cyclopropanecarboxamido(4-isopropylphenyl)methyl)phenyl)azetidine-2-carboxamide] | 5.83 |
| CC(C)c1ccc([C@@H](NC(=O)C2CC2)c2ccccc2)nc1 [compound 45, (S)-N-((5-isopropylpyridin-2-yl)(phenyl)methyl)cyclopropanecarboxamide] | 5.60 |
| CC(C)c1ccc([C@@H](NC(=O)C2CC2)c2ccccc2NC(=O)[C@@H]2CCN2)cc1 [compound 49, (S)-N-(2-((R)-cyclopropanecarboxamido(4-isopropylphenyl)methyl)phenyl)azetidine-2-carboxamide] | 5.75 |
